Source: PubChem BioAssay AID330 (DTP/NCI, 2004)
“And” between values parts separate entries of the source, which are not always exact repeats. Equal entries are not always repeated. Inconclusive results and toxic doses are left out.

System: P388 leukemia ip, CD2F1 mice, survival T/C
Assay: NCI In Vivo Anticancer Drug Screen. Data for tumor model P388 Leukemia (intraperitoneal) in CD2F1 (CDF1) mice
Conditions: endpoint: median survival time, higher = longer survival
How it was run: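 Mice carrying the transplanted tumor received test compound or vehicle. Survival was recorded in each group, and the value is the treated-group measurement divided by that of the vehicle-treated control group.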

[1] = dose: 50.0 mg/kg/injection, schedule: Q01DX009 (ip), vehicle: Klucel (hydroxypropylcellulose) (HPC)
[2] = dose: 200.0 mg/kg/injection, schedule: Q01DX009 (ip), vehicle: Klucel (hydroxypropylcellulose) (HPC)
[3] = dose: 60.0 mg/kg/injection, schedule: Q01DX005 (ip), vehicle: Klucel (hydroxypropylcellulose) (HPC)
[4] = dose: 120.0 mg/kg/injection, schedule: Q01DX005 (ip), vehicle: Klucel (hydroxypropylcellulose) (HPC)
[5] = dose: 30.0 mg/kg/injection, schedule: Q01DX005 (ip), vehicle: Klucel (hydroxypropylcellulose) (HPC)
[6] = dose: 25.0 mg/kg/injection, schedule: Q04DX002 (ip), vehicle: saline with Tween-80
[7] = dose: 50.0 mg/kg/injection, schedule: Q04DX002 (ip), vehicle: saline with Tween-80
[8] = dose: 100.0 mg/kg/injection, schedule: Q04DX002 (ip), vehicle: saline with Tween-80
[9] = dose: 50.0 mg/kg/injection, schedule: Q01DX005 (ip), vehicle: saline with Tween-80
[10] = dose: 100.0 mg/kg/injection, schedule: Q01DX005 (ip), vehicle: saline with Tween-80
[11] = dose: 50.0 mg/kg/injection, schedule: Q01DX009 (ip), vehicle: saline
[12] = dose: 100.0 mg/kg/injection, schedule: Q01DX009 (ip), vehicle: saline
[13] = dose: 100.0 mg/kg/injection, schedule: Q01DX009 (ip), vehicle: Klucel (hydroxypropylcellulose) (HPC)

C=C1C(=O)OC2CC(C)C3OC3C(=O)C(C)(O)C(O)C(O)C12 (stereo unspecified) (tested in a mixture with another compound)
T/C (dose: 6.25 mg/kg/injection, schedule: Q01DX009 (ip), vehicle: Klucel (hydroxypropylcellulose) (HPC)): 104 % of control
T/C (dose: 12.5 mg/kg/injection, schedule: Q01DX009 (ip), vehicle: Klucel (hydroxypropylcellulose) (HPC)): 101 % of control and 117 % of control
T/C (dose: 25.0 mg/kg/injection, schedule: Q01DX009 (ip), vehicle: Klucel (hydroxypropylcellulose) (HPC)): 110 % of control and 123 % of control
T/C [1]: 123 % of control
T/C [2]: 119 % of control

COC(=O)C1CC(C(=O)OC)c2nc3ccccc3nc21 (stereo unspecified)
T/C [3]: 100 % of control
T/C [4]: 98 % of control

CCOC(=O)C1=C(C(C)=O)C(c2ccc([N+](=O)[O-])cc2)C(C(C)=O)=C(C(=O)OCC)N1
T/C (dose: 7.5 mg/kg/injection, schedule: Q01DX005 (ip), vehicle: Klucel (hydroxypropylcellulose) (HPC)): 101 % of control
T/C (dose: 15.0 mg/kg/injection, schedule: Q01DX005 (ip), vehicle: Klucel (hydroxypropylcellulose) (HPC)): 104 % of control
T/C [5]: 102 % of control

CCCOC(=O)/C=C(\F)C(=O)OCCC
T/C (dose: 6.25 mg/kg/injection, schedule: Q04DX002 (ip), vehicle: saline with Tween-80): 110 % of control
T/C (dose: 12.5 mg/kg/injection, schedule: Q04DX002 (ip), vehicle: saline with Tween-80): 116 % of control
T/C [6]: 95 % of control

CC(C)c1ccc(OC(=N)c2ccccc2)cc1
T/C (dose: 100.0 mg/kg/injection, schedule: Q04DX003 (ip), vehicle: saline with Tween-80): 98 % of control
T/C (dose: 200.0 mg/kg/injection, schedule: Q04DX003 (ip), vehicle: saline with Tween-80): 100 % of control
T/C (dose: 400.0 mg/kg/injection, schedule: Q04DX003 (ip), vehicle: saline with Tween-80): 89 % of control

CCOC(=O)C1Cc2nc(N)ncc2C1=O (stereo unspecified)
T/C (dose: 15.0 mg/kg/injection, schedule: Q01DX009 (ip), vehicle: saline with Tween-80): 96 % of control
T/C (dose: 30.0 mg/kg/injection, schedule: Q01DX009 (ip), vehicle: saline with Tween-80): 107 % of control
T/C (dose: 60.0 mg/kg/injection, schedule: Q01DX009 (ip), vehicle: saline with Tween-80): 114 % of control

CC1(OC(=O)c2ccc([N+](=O)[O-])cc2)CC(C)(C)[N+]([O-])=N1 (stereo unspecified)
T/C (dose: 12.5 mg/kg/injection, schedule: Q01DX009 (ip), vehicle: other): 102 % of control
T/C (dose: 25.0 mg/kg/injection, schedule: Q01DX009 (ip), vehicle: other): 102 % of control
T/C (dose: 50.0 mg/kg/injection, schedule: Q01DX009 (ip), vehicle: other): 109 % of control
T/C (dose: 100.0 mg/kg/injection, schedule: Q01DX009 (ip), vehicle: other): 100 % of control
T/C (dose: 200.0 mg/kg/injection, schedule: Q01DX009 (ip), vehicle: other): 94 % of control

O=C1OC(c2ccccc2)=N/C1=C\c1cccc([N+](=O)[O-])c1
T/C [7]: 96 % of control
T/C [8]: 97 % of control
T/C (dose: 200.0 mg/kg/injection, schedule: Q04DX002 (ip), vehicle: saline with Tween-80): 99 % of control
T/C (dose: 400.0 mg/kg/injection, schedule: Q04DX002 (ip), vehicle: saline with Tween-80): 99 % of control

Nc1cccc(S(=O)(=O)Nc2c(N)[nH]c(=S)[nH]c2=O)c1
T/C [5]: 101 % of control and 94 % of control
T/C [3]: 99 % of control and 100 % of control and 97 % of control
T/C [4]: 96 % of control and 97 % of control

COc1ccc(S(=O)(=O)N/N=C/CN(C)C)cc1
T/C (dose: 25.0 mg/kg/injection, schedule: Q01DX005 (ip), vehicle: saline with Tween-80): 101 % of control
T/C [9]: 101 % of control
T/C [10]: 101 % of control
T/C (dose: 200.0 mg/kg/injection, schedule: Q01DX005 (ip), vehicle: saline with Tween-80): 99 % of control

Cc1cc[n+](CCC(N)=O)cc1
T/C (dose: 100.0 mg/kg/injection, schedule: Q04DX003 (ip), vehicle: saline): 100 % of control
T/C (dose: 200.0 mg/kg/injection, schedule: Q04DX003 (ip), vehicle: saline): 100 % of control

CO/N=C/c1ccc[n+](C)c1
T/C [9]: 105 % of control
T/C [10]: 105 % of control

CN=C([O-])c1c(=O)o[nH][n+]1-c1ccccc1
T/C (dose: 60.0 mg/kg/injection, schedule: Q01DX005 (ip), vehicle: saline with Tween-80): 95 % of control
T/C (dose: 120.0 mg/kg/injection, schedule: Q01DX005 (ip), vehicle: saline with Tween-80): 98 % of control
T/C (dose: 240.0 mg/kg/injection, schedule: Q01DX005 (ip), vehicle: saline with Tween-80): 94 % of control

COc1cc(C(=O)C(C=O)c2ccccc2)c([N+](=O)[O-])cc1OC (stereo unspecified)
T/C (dose: 50.0 mg/kg/injection, schedule: Q01DX005 (ip), vehicle: Klucel (hydroxypropylcellulose) (HPC)): 94 % of control
T/C (dose: 100.0 mg/kg/injection, schedule: Q01DX005 (ip), vehicle: Klucel (hydroxypropylcellulose) (HPC)): 98 % of control
T/C (dose: 200.0 mg/kg/injection, schedule: Q01DX005 (ip), vehicle: Klucel (hydroxypropylcellulose) (HPC)): 92 % of control

O=S(=O)(O)c1ccc(-c2c3nc(c(-c4ccc(S(=O)(=O)O)cc4)c4ccc([nH]4)c(-c4ccc(S(=O)(=O)O)cc4)c4nc(c(-c5ccc(S(=O)(=O)O)cc5)c5ccc2[nH]5)C=C4)C=C3)cc1
T/C (dose: 1.56 mg/kg/injection, schedule: Q01DX009 (ip), vehicle: distilled water + Tween-80): 97 % of control
T/C (dose: 3.13 mg/kg/injection, schedule: Q01DX009 (ip), vehicle: distilled water + Tween-80): 100 % of control
T/C (dose: 6.25 mg/kg/injection, schedule: Q01DX009 (ip), vehicle: distilled water + Tween-80): 100 % of control
T/C (dose: 12.5 mg/kg/injection, schedule: Q01DX009 (ip), vehicle: distilled water + Tween-80): 102 % of control and 109 % of control

COc1ccc(C2CC(=O)C(C)C(c3ccc(OC)cc3)N2)cc1 (stereo unspecified)
T/C [11]: 100 % of control
T/C [12]: 104 % of control
T/C (dose: 200.0 mg/kg/injection, schedule: Q01DX009 (ip), vehicle: saline): 100 % of control

Cn1c(-c2ccccc2)c2c(c1-c1ccccc1)C(=O)c1ccccc1C2=O
T/C [1]: 95 % of control
T/C [13]: 101 % of control
T/C [2]: 100 % of control

CC1(C)C2(C(N)=O)C(=O)NC(=O)C12C(=O)O (stereo unspecified)
T/C [6]: 95 % of control
T/C [7]: 104 % of control
T/C [8]: 103 % of control

COc1cc(Cc2nnc(NN=C(C)C)[nH]c2=O)cc(OC)c1OC
T/C (dose: 50.0 mg/kg/injection, schedule: Q01DX001 (ip), vehicle: Klucel (hydroxypropylcellulose) (HPC)): 115 % of control
T/C (dose: 100.0 mg/kg/injection, schedule: Q01DX001 (ip), vehicle: Klucel (hydroxypropylcellulose) (HPC)): 98 % of control and 100 % of control
T/C (dose: 200.0 mg/kg/injection, schedule: Q01DX001 (ip), vehicle: Klucel (hydroxypropylcellulose) (HPC)): 100 % of control and 124 % of control
T/C (dose: 400.0 mg/kg/injection, schedule: Q01DX001 (ip), vehicle: Klucel (hydroxypropylcellulose) (HPC)): 105 % of control and 116 % of control

CC(C)CC(N)C(=O)OCN1C(=O)C2C3C=CC(C2C1=O)C1C2C(=O)N(COC(=O)C(N)CC(C)C)C(=O)C2C31 (stereo unspecified)
T/C (dose: 12.5 mg/kg/injection, schedule: Q01DX009 (ip), vehicle: saline): 102 % of control and 105 % of control
T/C (dose: 25.0 mg/kg/injection, schedule: Q01DX009 (ip), vehicle: saline): 105 % of control and 108 % of control
T/C [11]: 109 % of control and 119 % of control
T/C [12]: 162 % of control and 177 % of control

Cc1nn(CCO)c(=O)c(C#N)c1C
T/C (dose: 25.0 mg/kg/injection, schedule: Q04DX002 (ip), vehicle: distilled water + Tween-80): 103 % of control
T/C (dose: 50.0 mg/kg/injection, schedule: Q04DX002 (ip), vehicle: distilled water + Tween-80): 108 % of control
T/C (dose: 100.0 mg/kg/injection, schedule: Q04DX002 (ip), vehicle: distilled water + Tween-80): 101 % of control
T/C (dose: 200.0 mg/kg/injection, schedule: Q04DX002 (ip), vehicle: distilled water + Tween-80): 94 % of control

COc1ccc(C(=O)c2cccnc2C(=O)O)cc1
T/C (dose: 50.0 mg/kg/injection, schedule: Q01DX009 (ip), vehicle: saline with Tween-80): 105 % of control
T/C (dose: 100.0 mg/kg/injection, schedule: Q01DX009 (ip), vehicle: saline with Tween-80): 107 % of control
T/C (dose: 200.0 mg/kg/injection, schedule: Q01DX009 (ip), vehicle: saline with Tween-80): 107 % of control

Cc1ccc(S(=O)(=O)C2(Sc3ccccc3)SC2C(=O)c2ccccc2)cc1 (stereo unspecified)
T/C [1]: 99 % of control
T/C [13]: 105 % of control
T/C [2]: 111 % of control
